`CC1(C)COP(=O)(O)OC1c1ccccc1Cl` (centres undefined) gave a solubility (mole fraction) (in acetic acid, 293.15 K) of 0.00131, a solubility (mole fraction) (in acetic acid, 298.15 K) of 0.00156 and a solubility (mole fraction) (in acetic acid, 303.15 K) of 0.00186. The solubility (mole fraction) (in acetic acid, 308.15 K) was 0.00221, the solubility (mole fraction) (in acetic acid, 313.15 K) was 0.0025 and the solubility (mole fraction) (in acetic acid, 318.15 K) was 0.00277. It also gave a solubility (mole fraction) (in acetic acid, 323.15 K) of 0.00341, a solubility (mole fraction) (in acetic acid, 328.15 K) of 0.0039 and a solubility (mole fraction) (in acetic acid, 333.15 K) of 0.00449. For the same compound, the solubility (mole fraction) (in acetic acid, 338.15 K) was 0.00523, the solubility (mole fraction) (in ethanol, 278.15 K) was 0.00426 and the solubility (mole fraction) (in ethanol, 283.15 K) was 0.00473. For the same compound, the solubility (mole fraction) (in ethanol, 288.15 K) was 0.00536, the solubility (mole fraction) (in ethanol, 293.15 K) was 0.00614 and the solubility (mole fraction) (in ethanol, 298.15 K) was 0.00685. It also gave a solubility (mole fraction) (in ethanol, 303.15 K) of 0.00783, a solubility (mole fraction) (in ethanol, 308.15 K) of 0.00884 and a solubility (mole fraction) (in ethanol, 313.15 K) of 0.00995. It also gave a solubility (mole fraction) (in ethanol, 318.15 K) of 0.0121, a solubility (mole fraction) (in ethanol, 323.15 K) of 0.0135 and a solubility (mole fraction) (in isopropanol, 278.15 K) of 0.0114. The solubility (mole fraction) (in isopropanol, 283.15 K) was 0.0135, the solubility (mole fraction) (in isopropanol, 288.15 K) was 0.016 and the solubility (mole fraction) (in isopropanol, 293.15 K) was 0.0176. It also gave a solubility (mole fraction) (in isopropanol, 298.15 K) of 0.0207, a solubility (mole fraction) (in isopropanol, 303.15 K) of 0.0251 and a solubility (mole fraction) (in isopropanol, 308.15 K) of 0.029. It also gave a solubility (mole fraction) (in isopropanol, 313.15 K) of 0.0342, a solubility (mole fraction) (in isopropanol, 318.15 K) of 0.0391 and a solubility (mole fraction) (in isopropanol, 323.15 K) of 0.0448. It also gave a solubility (mole fraction) (in methanol, 278.15 K) of 0.00445, a solubility (mole fraction) (in methanol, 283.15 K) of 0.00519 and a solubility (mole fraction) (in methanol, 288.15 K) of 0.00572. It also gave a solubility (mole fraction) (in methanol, 293.15 K) of 0.00644, a solubility (mole fraction) (in methanol, 298.15 K) of 0.00713 and a solubility (mole fraction) (in methanol, 303.15 K) of 0.00809. The solubility (mole fraction) (in methanol, 308.15 K) was 0.00892, the solubility (mole fraction) (in methanol, 313.15 K) was 0.0105 and the solubility (mole fraction) (in methanol, 318.15 K) was 0.0125. The solubility (mole fraction) (in methanol, 323.15 K) was 0.0145, the solubility (mole fraction) (in tert-butanol, 303.15 K) was 0.0228 and the solubility (mole fraction) (in tert-butanol, 308.15 K) was 0.0281. The solubility (mole fraction) (in tert-butanol, 313.15 K) was 0.0313, the solubility (mole fraction) (in tert-butanol, 318.15 K) was 0.0359 and the solubility (mole fraction) (in tert-butanol, 323.15 K) was 0.0398. It also gave a solubility (mole fraction) (in tert-butanol, 328.15 K) of 0.0469, a solubility (mole fraction) (in tert-butanol, 333.15 K) of 0.051 and a solubility (mole fraction) (in tert-butanol, 338.15 K) of 0.0574. The solubility (mole fraction) (in tert-butanol, 343.15 K) was 0.0629, the solubility (mole fraction) (in tert-butanol, 348.15 K) was 0.0691 and the solubility (mole fraction) (in water, 278.15 K) was 0.000124. It also gave a solubility (mole fraction) (in water, 283.15 K) of 0.000123, a solubility (mole fraction) (in water, 288.15 K) of 0.000136 and a solubility (mole fraction) (in water, 293.15 K) of 0.000157. The solubility (mole fraction) (in water, 298.15 K) was 0.000162, the solubility (mole fraction) (in water, 303.15 K) was 0.000164 and the solubility (mole fraction) (in water, 308.15 K) was 0.000166. It also gave a solubility (mole fraction) (in water, 313.15 K) of 0.000168 and a solubility (mole fraction) (in water, 318.15 K) of 0.00017.

Reference: BigSolDB 2.1
